Results reported in patent US4277478A, “Antibiotic and use thereof” (priority 1975, dated 1981).

Legend:
Micro-organisms = assay: MIC of Lysolipin X compared with Lysolipin I, serial dilution test; format: cell-based; details: Lysolipin X relative to Lysolipin I
Description: (§1) The components display the following Rf values in a thin layer chromatogram on silica gel plates from Messrs. Merck (silica gel 60, F254): in chloroform/methanol (9:1): X=0.58; I=0.81; in benzene/methanol (9:1): X=0.26; I=0.30; in chloroform/acetone (5:5): X=0.40; I=0.53; and in benzene/acetone (5:5): X=0.47; I=0.74. In a serial dilution test the following minimum inhibitory concentrations (MIC) were found for Lysolipin I: […]

Candida albicans = assay: activity against yeast-like fungi, Candida albicans; format: cell-based
Candida lipolytica = assay: activity against yeast-like fungi, Candida lipolytica; format: cell-based
Saccaromyces cerevisiae = assay: activity against yeast-like fungi, Saccaromyces cerevisiae; format: cell-based
microbial cells = assay: activity against growing and dormant microbial cells and sphaeroplasts; format: cell-based; details: both growing and dormant cells
[1] = stability / conversion of Lysolipin X into Lysolipin I; format: physicochemical
Experimental: Lysolipin X was obtained as a colourless amorphous powder. […] The almost colourless amorphous powder thus obtained, that is to say Lysolipin X, can be crystallized from methanol; on heating the crystals undergo modification at 200° and melt at 260° C.
The pure product so obtained is stable in the absence of light and acid. In a thin layer chromatogram on silica gel in the system chloroform/methanol (39:1), Rf=0.22 (Rf of Lysolipin I=0.39). […] The signals at 0.9 and 1.3 ppm are probably to be ascribed to a fatty impurity. However, most of the signals in the range from 3 to 8 ppm are very similar to those of Lysolipin I and point to the close relationship between the two compounds.
On analogous working up, fractions 76-100 give an almost colourless amorphous powder (393 mg), which is Lysolipin X and cannot be purified by crystallisation. See FIGS. 7 and 8 for the NMR spectrum and the UV spectrum. On thin layer chromatography on silica gel in chloroform/methanol (39:1), Rf=0.22 (compared with 0.39 for Lysolipin I). On the thin layer plate, the spot for Lysolipin X, which is initially very pale and scarcely discernible, becomes deep yellow on standing in the air and, more rapidly, on warming.

Salmonella typhimurium = assay: serial dilution test, MIC, Salmonella typhimurium; format: cell-based; details: Salmonella enterica, 37°, Gram-negative
Description: as §1

solubility = format: physicochemical
[2] = titration / microtitration (pK); format: physicochemical
Description: (OCH3 : determination according to the method of Zeisel). Molecular weight, determined by vapour pressure osmometry in ethyl acetate; found 536. Microtitration with 0.1 N tetramethylammonium hydroxide in methylcellosolve/water (8:2): found pK^xMCS 9.72, equivalent weight 545. Titration with 0.1 N HCl; no step (N atom therefore not basic).

Row | SMILES | factor by which the MIC is higher (Micro-organisms) | activity against yeast-like fungi (Candida albicans) | activity against yeast-like fungi (Candida lipolytica) | activity against yeast-like fungi (Saccaromyces cerevisiae) | activity against growing and dormant microbial cells and their sphaeroplasts (microbial cells) | stability to acid in solvent ([1]; chloroform or methanol with formic, acetic, hydrochloric or sulfuric acid) | stability on heating or irradiation with UV light ([1]; especially in the presence of catalytic amounts of acids) | stability of impure material ([1]; impure) | stability on storage ([1]; impure, stored in the air, unprotected from light, room temperature or higher) | stability of pure product ([1]; in the absence of light and acid) | stability on thin layer plate ([1]; silica gel plate, standing in the air, more rapidly on warming) | MIC (Salmonella typhimurium) [µg/mL] | solubility in organic solvents (solubility; acetone, dimethylformamide, dimethylsulphoxide, ethyl acetate, hydrocarbons, halogenated hydrocarbons) | solubility in lower alkanols, ether and petroleum ether (solubility; methanol, ethanol, n-propanol, ether, petroleum ether) | solubility in water and aqueous acids and bases (solubility; water and aqueous acids and bases) | titration with HCl ([2]; 0.1 N HCl, N atom therefore not basic) | pKa ([2]; microtitration with 0.1 N tetramethylammonium hydroxide in methylcellosolve/water (8:2), read-out: pK^xMCS)
1 | COc1c(Cl)ccc2c(=O)c3c(oc12)C1=C2C(OCO1)C(OC)c1cc4c(c(O)c1C2(O)C3O)C(=O)N(C)C(OC)C4O (stereo not drawn) [Lysolipin X] | 10-50 | display an activity | display an activity | display an activity | active | converted into Lysolipin I | forms Lysolipin I | unstable | gradually converted into Lysolipin I | stable | converted into Lysolipin I |  |  |  |  |  | 
2 | COc1c(Cl)ccc2c(=O)c3c(O)c4c5c(c3oc12)OCOC5C(OC)c1cc2c(c(O)c1-4)C(=O)N(C)C(OC)C2O (stereo not drawn) [Lysolipin I] |  | display an activity | display an activity | display an activity | active |  |  |  |  |  |  | > 100 | readily soluble | partially soluble | virtually insoluble | no step | 9.72
